Activity calls are given as the source filed them. The rule behind the calls is not given here.
Columns and labels:
[1] = test system: MDA-MB-231; test: Antiproliferative activity against human MDA-MB-231 cells after 48 hrs by MTT assay; assay type: functional; details: MDA-MB-231, 48 h
[2] = target: Tubulin (Sus scrofa) (UniProt P02554+P02550); test: (§1) Inhibition of porcine brain tubulin polymerization
[3] = target: Tubulin (Sus scrofa, UniProt P02554+P02550); test: as §1
[4] = test system: HeLa; test: Cell cycle arrest in human HeLa cells assessed as reduction in accumulation of cells at S phase up to 0.4 uM after 24 hrs by propidium iodide staining-based flow cytometric analysis; assay type: functional
[5] = test system: HeLa; test: Induction of apoptosis in human HeLa cells assessed as necrotic cells at 0.05 uM after 24 hrs by Annexin V-FITC/propidium iodide staining-based flow cytometric analysis (reference value: 0.05%); assay type: functional
[6] = test system: HeLa; test: Induction of apoptosis in human HeLa cells assessed as early apoptotic cells at 0.1 uM after 24 hrs by Annexin V-FITC/propidium iodide staining-based flow cytometric analysis (reference value: 3.65%); assay type: functional
[7] = test system: HeLa; test: Induction of apoptosis in human HeLa cells assessed as necrotic cells at 0.1 uM after 24 hrs by Annexin V-FITC/propidium iodide staining-based flow cytometric analysis (reference value: 0.05%); assay type: functional
[8] = test system: HeLa; test: Induction of apoptosis in human HeLa cells assessed as increase in cleaved PARP level at 0.02 to 0.1 uM after 24 hrs by Western blot analysis; assay type: functional, cell-based
[9] = target: T1, Tubulin (Homo sapiens) (UniProt P68371+Q9H4B7+P0DPH7+P68366+Q13509+Q71U36+P04350+Q3ZCM7+P07437+P68363+Q9BQE3+Q6PEY2+Q13885+Q9BVA1+Q9BUF5); test: Inhibition of tubulin polymerization in human HeLa cells assessed as induction of microtubule fiber breakdown at 0.02 uM after 12 hrs by DAPI staining-based confocal fluorescence microscopic analysis; assay type: cell-based
[10] = target: T1, Tubulin (Homo sapiens); test: Inhibition of tubulin polymerization in human HeLa cells assessed as induction of shorter microtubule fibers at 0.02 uM after 12 hrs by DAPI staining-based confocal fluorescence microscopic analysis; assay type: cell-based
[11] = Stability in human liver microsomes assessed as parent compound remaining at 5 uM after 2 hrs in presence of NADPH regenerating system by LC-MS/MS analysis; assay type: ADME, Microsome
[12] = Half life in human liver microsomes at 5 uM in presence of NADPH regenerating system by LC-MS/MS analysis; assay type: ADME, Microsome
[13] = Half life in monkey liver microsomes at 5 uM in presence of NADPH regenerating system by LC-MS/MS analysis; assay type: ADME, Macaca mulatta, Microsome; details: rhesus monkey
[14] = Half life in rat liver microsomes at 5 uM in presence of NADPH regenerating system by LC-MS/MS analysis; assay type: ADME, Microsome
[15] = MRT (0 to infinity) in Sprague-Dawley rat at 1.5 mg/kg, iv administered as single dose by LC-MS/MS analysis; assay type: ADME, organism-based; details: in vivo
[16] = Apparent volume of distribution in Sprague-Dawley rat at 1.5 mg/kg, iv administered as single dose by LC-MS/MS analysis; assay type: ADME, organism-based; details: in vivo, read-out: Vd(app)
[17] = Cmax in female Sprague-Dawley rat at 1.5 mg/kg, iv administered as single dose by LC-MS/MS analysis; assay type: ADME, organism-based; parameters: dose 1.5 mg/kg, route intravenous; details: in vivo
[18] = Half life in male Sprague-Dawley rat at 1.5 mg/kg, iv administered as single dose by LC-MS/MS analysis; assay type: ADME, organism-based; details: in vivo
[19] = Clearance in male Sprague-Dawley rat at 1.5 mg/kg, iv administered as single dose by LC-MS/MS analysis; assay type: ADME, organism-based; details: in vivo
[20] = Apparent volume of distribution in male Sprague-Dawley rat at 1.5 mg/kg, iv administered as single dose by LC-MS/MS analysis; assay type: ADME, organism-based; details: in vivo, read-out: Vd(app)
[21] = Cmax in male Sprague-Dawley rat at 1.5 mg/kg, iv administered as single dose by LC-MS/MS analysis; assay type: ADME, organism-based; parameters: dose 1.5 mg/kg, route intravenous; details: in vivo
[22] = test system: HeLa; test: Antitumor activity against human HeLa cells xenografted in nude mouse assessed as tumor growth inhibition at 20 mg/kg, iv administered every other day up to 20 days relative to control; assay type: functional; details: 480 h, read-out: TGI
[23] = Toxicity in mouse xenografted with human HeLa cells assessed as change in spleen weight at 5 to 20 mg/kg, iv administered every other day up to 20 days; assay type: organism-based; details: in vivo, 480 h
[24] = test system: HeLa; test: Antitumor activity against human HeLa cells xenografted in nude mouse assessed as tumor weight at 5 mg/kg, iv administered every other day up to 20 days (reference value: 1.014 +/- 0.116g); assay type: functional

Chain of Tubulin (Sus scrofa) (P02550 whole entry, looked up): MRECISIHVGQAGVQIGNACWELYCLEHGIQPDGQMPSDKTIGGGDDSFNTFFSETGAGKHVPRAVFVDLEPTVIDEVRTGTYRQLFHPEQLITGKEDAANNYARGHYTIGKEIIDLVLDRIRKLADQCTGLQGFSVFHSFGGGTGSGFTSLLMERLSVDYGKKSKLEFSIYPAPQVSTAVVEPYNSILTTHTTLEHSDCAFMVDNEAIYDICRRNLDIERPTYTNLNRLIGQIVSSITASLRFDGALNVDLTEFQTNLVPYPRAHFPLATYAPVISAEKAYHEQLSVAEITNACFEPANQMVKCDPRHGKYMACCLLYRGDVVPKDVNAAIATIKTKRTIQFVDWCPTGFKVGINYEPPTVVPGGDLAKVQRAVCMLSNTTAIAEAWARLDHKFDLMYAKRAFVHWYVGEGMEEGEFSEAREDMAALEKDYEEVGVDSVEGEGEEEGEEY
Chain of Tubulin (Sus scrofa) (P02554 whole entry, looked up): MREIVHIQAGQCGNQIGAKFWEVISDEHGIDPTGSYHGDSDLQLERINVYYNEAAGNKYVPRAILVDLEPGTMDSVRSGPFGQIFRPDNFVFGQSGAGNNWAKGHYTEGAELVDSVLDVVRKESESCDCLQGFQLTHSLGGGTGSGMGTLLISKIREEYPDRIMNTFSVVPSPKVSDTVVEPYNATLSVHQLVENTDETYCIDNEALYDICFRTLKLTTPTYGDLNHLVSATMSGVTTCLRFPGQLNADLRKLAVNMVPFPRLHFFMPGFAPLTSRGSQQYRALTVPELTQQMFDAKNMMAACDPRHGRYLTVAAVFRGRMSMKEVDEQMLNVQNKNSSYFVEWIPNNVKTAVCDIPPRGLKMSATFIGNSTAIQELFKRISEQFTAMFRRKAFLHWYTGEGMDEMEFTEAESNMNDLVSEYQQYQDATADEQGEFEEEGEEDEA

GI50 [1]: 140 nM | inhibition [2]: Dose-dependent effect | IC50 [3]: 1490 nM | Activity [9]: Active | Activity [10]: Active | Stability [11]: 31.1% | t1/2 [12]: 2.8455 h | half-life at 5 µM [13]: 2.06 h | half-life at 5 µM [14]: 0.617 h | MRT inf [15]: 1.09 h | Vd [16]: 5.03 L/kg | Cmax [17]: 531 ng/mL | half-life [18]: 0.87 h | clearance [19]: 51 mL/min/kg | Vd [20]: 3.82 L/kg | Cmax [21]: 658 ng/mL
SMILES: COC(=O)N1N=C(c2cccc(C)c2)CC1c1cc(OC)c(OC)c(OC)c1 (centres undefined)
Activity [4]: Active | Activity [5]: 0.46% | Activity [6]: 17.3% | Activity [7]: 0.829% | Activity [8]: Active | inhibition in vivo at 20 mg/kg [22]: 72.9% | Activity [23]: Non-Toxic | Activity [24]: 0.812 g
